Test results: patent US11230541B2, “Heterocyclic compound” (Takeda Pharmaceutical Company Limited, priority 2017, dated 2022)

Biological target: T1, NMDA receptor composed of four subunits including 2 sets of heterodimers of NR1 and NR2B (Homo sapiens, UniProt Q13224)
T1 construct: host or cells: HEK293 (tetracycline-induced expression)
Test: NR2B Ca2+ influx assay (FLIPR, Fluo-4) in HEK293 cells expressing human GRIN1 and GRIN2B
Type: cell-based
Details: HEK293, 10 μM final compound concentration, glutamic acid/glycine-induced Ca2+ influx, read-out: inhibitory rate (10 μM compound concentration)
Outline: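 Tetracycline-induced (2 h) HEK293 cells expressing human GRIN1/GRIN2B, Fluo-4-loaded, were preincubated 15 min at room temperature with compound at 10 μM final. FLIPR recorded Ca2+ influx every 3 s for 5 min after glutamate/glycine addition (30 μM in added buffer); inhibition from cumulative fluorescence relative to agonist-free wells.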

T1 sequence (Q13224 27-1484, other chains not shown): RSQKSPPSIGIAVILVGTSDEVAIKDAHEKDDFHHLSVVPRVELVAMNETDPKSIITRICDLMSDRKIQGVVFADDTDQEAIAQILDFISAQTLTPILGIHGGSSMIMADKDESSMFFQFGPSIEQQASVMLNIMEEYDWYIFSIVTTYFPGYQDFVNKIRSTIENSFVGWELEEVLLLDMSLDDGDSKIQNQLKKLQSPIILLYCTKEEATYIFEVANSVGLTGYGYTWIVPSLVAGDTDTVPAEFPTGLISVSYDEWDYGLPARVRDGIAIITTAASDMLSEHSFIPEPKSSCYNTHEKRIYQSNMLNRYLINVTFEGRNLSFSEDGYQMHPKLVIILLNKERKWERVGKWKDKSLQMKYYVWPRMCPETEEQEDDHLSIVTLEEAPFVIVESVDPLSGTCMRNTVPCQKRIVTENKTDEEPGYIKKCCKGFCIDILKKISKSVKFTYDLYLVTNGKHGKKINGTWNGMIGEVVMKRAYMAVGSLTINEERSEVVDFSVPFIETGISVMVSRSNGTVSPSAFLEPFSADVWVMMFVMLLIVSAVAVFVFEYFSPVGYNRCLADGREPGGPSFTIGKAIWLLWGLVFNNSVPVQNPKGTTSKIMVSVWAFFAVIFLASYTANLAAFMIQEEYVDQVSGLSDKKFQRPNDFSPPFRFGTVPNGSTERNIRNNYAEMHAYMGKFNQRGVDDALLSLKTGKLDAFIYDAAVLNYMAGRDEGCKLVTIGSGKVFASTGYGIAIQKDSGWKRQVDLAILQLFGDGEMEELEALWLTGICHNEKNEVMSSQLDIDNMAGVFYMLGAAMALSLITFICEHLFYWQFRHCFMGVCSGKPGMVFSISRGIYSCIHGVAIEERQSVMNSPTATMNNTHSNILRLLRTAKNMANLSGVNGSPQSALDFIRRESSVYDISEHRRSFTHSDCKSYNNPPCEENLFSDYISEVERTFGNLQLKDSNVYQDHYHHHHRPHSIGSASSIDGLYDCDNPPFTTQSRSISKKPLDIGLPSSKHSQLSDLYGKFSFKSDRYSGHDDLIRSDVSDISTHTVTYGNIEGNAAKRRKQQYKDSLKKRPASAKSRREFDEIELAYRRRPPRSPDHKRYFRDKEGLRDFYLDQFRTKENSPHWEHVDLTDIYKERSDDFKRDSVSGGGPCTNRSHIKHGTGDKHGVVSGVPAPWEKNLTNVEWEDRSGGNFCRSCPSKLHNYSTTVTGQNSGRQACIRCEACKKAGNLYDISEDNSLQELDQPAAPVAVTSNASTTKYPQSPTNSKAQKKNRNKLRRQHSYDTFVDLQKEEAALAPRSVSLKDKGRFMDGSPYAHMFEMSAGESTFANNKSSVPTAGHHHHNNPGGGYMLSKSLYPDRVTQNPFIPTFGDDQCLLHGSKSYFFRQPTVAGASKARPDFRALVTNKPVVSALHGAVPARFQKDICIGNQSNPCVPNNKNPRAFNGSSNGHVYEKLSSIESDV

## Cc1ccc2ncn(C)c2c1CNC(=O)c1ccc(OC(F)F)c(F)c1 [Example 109, 4-(difluoromethoxy)-N-((1,6-dimethyl-1H-benzimidazol-7-yl)methyl)-3-fluorobenzamide]
  inhibition at 10 µM: 92%

## O=C(NCc1cccc2[nH]ncc12)c1ccc(C(F)F)c(F)c1 [Example 178, 4-(difluoromethyl)-3-fluoro-N-(1H-indazol-4-ylmethyl)benzamide]
  inhibition at 10 µM: 70%

## COc1ccc(C(=O)NCc2c(C3CC3)ccc3[nH]ncc23)s1 [Example 67, N-((5-cyclopropyl-1H-indazol-4-yl)methyl)-methoxythiophene-2-carboxamide]
  inhibition at 10 µM: 92%

## COc1ccc2ncn(C)c2c1CNC(=O)Nc1ccc(F)c(C)c1 [Example 217, 1-(4-fluoro-3-methylphenyl)-3-((6-methoxy-1-methyl-1H-benzimidazol-7-yl)methyl)urea]
  inhibition at 10 µM: 82%

## CCc1ccc2ncn(C)c2c1CNC(=O)c1csc(C(F)F)c1 [Example 132, 5-(difluoromethyl)-N-((6-ethyl-1-methyl-1H-benzimidazol-7-yl)methyl)thiophene-3-carboxamide]
  inhibition at 10 µM: 90%

## COc1ccc2ncn(C)c2c1CNC(=O)c1ccc(OC(F)(F)F)nc1 [Example 56, ((6-methoxy-1-methyl-1H-benzimidazol-7-yl)methyl)-6-(trifluoro-methoxy)nicotinamide]
  inhibition at 10 µM: 93%

## CCOc1ncc(C(=O)NCc2cccc3[nH]ncc23)cc1F [Example 171, 6-ethoxy-5-fluoro-N-(1H-indazol-4-ylmethyl)nicotinamide]
  inhibition at 10 µM: 85%

## Cc1ccc2ncn(C)c2c1CNC(=O)c1ccc(C(F)F)c(F)c1 [Example 136, 4-(difluoromethyl)-N-((1,6-dimethyl-1H-benzimidazol-7-yl)methyl)-3-fluorobenzamide]
  inhibition at 10 µM: 83%

## COc1ccc(C(=O)NCc2c(OC)ccc3nc(C)n(C)c23)cc1F [Example 243, 3-fluoro-4-methoxy-N-((6-methoxy-1,2-dimethyl-lH-benzimidazol-7-yl)methyl)benzamide]
  inhibition at 10 µM: 69%

## O=C(NCc1cccc2[nH]ncc12)c1cc(F)c(F)c(Cl)c1 [Example 188, 3-chloro-4,5-difluoro-N-(1H-indazol-4-ylmethyl)benzamide]
  inhibition at 10 µM: 52%

## O=C(NCc1c(C2CC2)ccc2[nH]ncc12)c1csc(C(F)F)c1 [Example 154, N-((5-cyclopropyl-1H-indazol-4-yl)methyl)-5-(difluoromethyl)-thiophene-3-carboxamide]
  inhibition at 10 µM: 91%

## Cc1cc(C(=O)NCc2c(C3CC3)ccc3[nH]ncc23)ccc1Cl [Example 73, 4-chloro-N-((5-cyclopropyl-1H-indazol-yl)methyl)-3-methylbenzamide]
  inhibition at 10 µM: 94%

## O=C(NCc1cccc2[nH]ncc12)c1csc(Cl)c1 [Example 166, 5-chloro-N-(1H-indazol-4-ylmethyl)thiophene-3-carboxamide]
  inhibition at 10 µM: 56%

## COc1ccc2ncn(C)c2c1CNC(=O)c1cc(F)c(F)c(F)c1 [Example 41, 3,4,5-trifluoro-N-((6-methoxy-1-methyl-1H-benzimidazol-7-yl)methyl)benzamide]
  inhibition at 10 µM: 90%

## CCOc1ccc2ncn(C)c2c1CNC(=O)c1cc(F)c(OC)c(F)c1 [Example 127, N-((6-ethoxy-1-methyl-1H-benzimidazol-7-yl)methyl)-3,5-difluoro-4-methoxybenzamide]
  inhibition at 10 µM: 92%

## COc1ccc2ncn(C)c2c1CNC(=O)c1ccc(C(F)(F)F)cc1 [Example 117, N-((6-methoxy-1-methyl-1H-benzimidazol-7-yl)methyl)-4-(trifluoromethyl)benzamide]
  inhibition at 10 µM: 90%

## COc1ccc(C(=O)NCc2c(C)ccc3[nH]nnc23)cc1 [Example 264, 4-methoxy-N-((5-methyl-1H-benzotriazol-4-yl)methyl)benzamide]
  inhibition at 10 µM: 83%

## O=C(NCc1c(C2CC2)ccc2[nH]ncc12)c1cc(F)c(Cl)c(Cl)c1 [Example 87, 3,4-dichloro-N-((5-cyclopropyl-1H-indazol-4-yl)methyl)-5-fluorobenzamide]
  inhibition at 10 µM: 94%

## COc1ccc2ncn(C)c2c1CNC(=O)c1ccc(Cl)c(F)c1 [Example 44, 4-chloro-3-fluoro-N-((6-methoxy-1-methyl-1H-benzimidazol-7-yl)methyl)benzamide]
  inhibition at 10 µM: 89%

## COc1ccc2ncn(C)c2c1CNC(=O)Nc1ccc(C(F)(F)F)c(F)c1 [Example 261, 1-(3-fluoro-4-(trifluoromethyl)-phenyl)-3-{(6-methoxy-1-methyl-1H-benzimidazol-7-yl)methyl)urea]
  inhibition at 10 µM: 92%

## COc1ccc2ncn(C)c2c1CNC(=O)Cc1cccs1 [Example 33, N-((6-methoxy-1-methyl-1H-benzimidazol-7-yl)methyl)-2-(2-thienyl)acetamide]
  inhibition at 10 µM: 86%

## O=C(NCc1c(C2CC2)ccc2[nH]ncc12)c1cc(F)c(C(F)(F)F)c(F)c1 [Example 91, N-((5-cyclopropyl-1H-indazol-4-yl)methyl)-3,5-difluoro-4-(trifluoro-methyl)benzamide]
  inhibition at 10 µM: 94%

## COc1ccc2ncn(C)c2c1CNC(=O)c1cc(F)c(C)c(F)c1 [Example 9, 3,5-difluoro-N-((6-methoxy-1-methyl-1H-benzimidazol-7-yl)methyl)-4-methylbenzamide]
  inhibition at 10 µM: 92%

## COc1ccc2ncn(C)c2c1CNC(=O)Nc1ccc(F)c(F)c1 [Example 258, 1-(3,4-difluorophenyl)-3-((6-methoxy-1-methyl-1H-benzimidazol-7-yl)methyl)urea]
  inhibition at 10 µM: 85%

## O=C(NCc1c(C2CC2)ccc2[nH]ncc12)c1csc(Cl)c1 [Example 69, 5-chloro-N-((5-cyclopropyl-1H-indazol-4-yl)methyl)thiophene-3-carboxamide]
  inhibition at 10 µM: 93%

## COc1ccc2ncn(C)c2c1CNC(=O)c1cc(F)c(Cl)c(Cl)c1 [Example 55, 3,4-dichloro-5-fluoro-N-((6-methoxy-1-methyl-1H-benzimidazol-7-yl)methyl)benzamide]
  inhibition at 10 µM: 90%

## CCc1ccc2[nH]nnc2c1CNC(=O)c1cc(F)c(C(F)(F)F)c(F)c1 [Example 205, N-((5-ethyl-1H-benzotriazol-4-yl)methyl)-3,5-difluoro-4-(trifluoromethyl)-benzamide]
  inhibition at 10 µM: 87%

## COc1ccc2nc(C)n(C)c2c1CNC(=O)c1ccc(Cl)s1 [Example 229, 5-chloro-N-((6-methoxy-1,2-dimethyl-1H-benzimidazol-7-yl)methyl)thiophene-2-carboxamide]
  inhibition at 10 µM: 62%

## O=C(NCc1c(C2CC2)ccc2[nH]ncc12)c1ccc(Cl)cc1 [Example 102, 4-chloro-N-((5-cyclopropyl-1H-indazol-yl)methyl)benzamide]
  inhibition at 10 µM: 92%

## COc1ccc2ncn(C)c2c1CNC(=O)c1cc(Cl)c(F)c(Cl)c1 [Example 49, 3,5-dichloro-4-fluoro-N-((6-methoxy-1-methyl-1H-benzimidazol-7-yl)methyl)benzamide]
  inhibition at 10 µM: 69%

## CCc1ccc2[nH]nnc2c1CNC(=O)c1cc(F)c(OC)c(F)c1 [Example 206, N-((5-ethyl-1H-benzotriazol-4-yl)methyl)-3,5-difluoro-4-methoxybenzamide]
  inhibition at 10 µM: 95%

## COc1csc(C(=O)NCc2c(C3CC3)ccc3[nH]ncc23)c1 [Example 68, N-((5-cyclopropyl-1H-indazol-4-yl)methyl)-methoxythiophene-2-carboxamide]
  inhibition at 10 µM: 86%

## Cc1ccc2ncn(C)c2c1CNC(=O)c1cnc(OC(F)F)c(F)c1 [Example 134, 6-(Difluoromethoxy)-N-((1,6-dimethyl-1H-benzimidazol-7-yl)methyl)-5-fluoronicotinamide]
  inhibition at 10 µM: 90%

## Cc1ccc2ncn(C)c2c1CNC(=O)c1csc(Cl)c1 [Example 156, 5-chloro-N-((1,6-dimethyl-1H-benzimidazol-7-yl)methyl)thiophene-3-carboxamide]
  inhibition at 10 µM: 76%

## O=C(NCc1c(C2CC2)ccc2[nH]ncc12)c1ccc(C(F)(F)F)c(Cl)c1 [Example 89, 3-chloro-N-((5-cyclo-propyl-1H-indazol-4-yl)methyl)-4-(trifluoro-methyl)benzamide]
  inhibition at 10 µM: 91%

## O=C(NCc1c(C2CC2)ccc2[nH]ncc12)c1ccc(C(F)(F)F)s1 [Example 82, N-((5-cyclopropyl-1H-indazol-4-yl)methyl)-5-(trifluoromethyl)-thiophene-2-carboxamide]
  inhibition at 10 µM: 94%

## Cc1ccc2ncn(C)c2c1CNC(=O)c1ccc(OC(F)F)c(Cl)c1 [Example 31, 3-chloro-4-(difluoromethoxy)-N-((1,6-dimethyl-1H-benzimidazol-7-yl)methyl)benzamide]
  inhibition at 10 µM: 91%

## COc1ccc2ncn(C)c2c1CNC(=O)c1ccc(OC(F)F)cc1F [Example 277, 4-(difluoromethoxy)-2-fluoro-N-[(6-methoxy-1-methyl-1H-benzimidazol-7-yl)methyl]benzamide]
  inhibition at 10 µM: 63%

## COc1ccc2ncn(C)c2c1CNC(=O)c1cc(C)c(F)c(F)c1 [Example 54, 3,4-difluoro-N-((6-methoxy-1-methyl-1H-benzimidazol-7-yl)-methyl)-5-methyl-benzamide]
  inhibition at 10 µM: 85%

## O=C(NCc1c(C2CC2)ccc2[nH]ncc12)c1ccc(C(F)F)cc1 [Example 98, N-((5-cyclopropyl-1H-indazol-4-yl)methyl)-4-(difluoromethyl)-benzamide]
  inhibition at 10 µM: 90%

## COc1ccc(NC(=O)NCc2c(OC)ccc3ncn(C)c23)c(F)c1F [Example 259, 1-(2,3-difluoro-4-methoxyphenyl)-3-((6-methoxy-1-methyl-1H-benzimidazol-7-yl)methyl)urea]
  inhibition at 10 µM: 87%

## CCc1ccc2ncn(C)c2c1CNC(=O)c1ccc(OC)c(F)c1 [Example 130, N-((6-ethyl-1-methyl-1H-benzimidazol-7-yl)methyl)-3-fluoro-4-methoxybenzamide]
  inhibition at 10 µM: 91%
